The record followed here is ChEMBL document CHEMBL4673296 (J Med Chem, 2020).

Active and inactive are the calls of the source. The calls are words filed in the database; no cut-off is given here.

In data set [1] the target is T1, Serine/threonine-protein kinase ULK2 (Homo sapiens, UniProt Q8IYT8).
T1 sequence (Q8IYT8 whole entry): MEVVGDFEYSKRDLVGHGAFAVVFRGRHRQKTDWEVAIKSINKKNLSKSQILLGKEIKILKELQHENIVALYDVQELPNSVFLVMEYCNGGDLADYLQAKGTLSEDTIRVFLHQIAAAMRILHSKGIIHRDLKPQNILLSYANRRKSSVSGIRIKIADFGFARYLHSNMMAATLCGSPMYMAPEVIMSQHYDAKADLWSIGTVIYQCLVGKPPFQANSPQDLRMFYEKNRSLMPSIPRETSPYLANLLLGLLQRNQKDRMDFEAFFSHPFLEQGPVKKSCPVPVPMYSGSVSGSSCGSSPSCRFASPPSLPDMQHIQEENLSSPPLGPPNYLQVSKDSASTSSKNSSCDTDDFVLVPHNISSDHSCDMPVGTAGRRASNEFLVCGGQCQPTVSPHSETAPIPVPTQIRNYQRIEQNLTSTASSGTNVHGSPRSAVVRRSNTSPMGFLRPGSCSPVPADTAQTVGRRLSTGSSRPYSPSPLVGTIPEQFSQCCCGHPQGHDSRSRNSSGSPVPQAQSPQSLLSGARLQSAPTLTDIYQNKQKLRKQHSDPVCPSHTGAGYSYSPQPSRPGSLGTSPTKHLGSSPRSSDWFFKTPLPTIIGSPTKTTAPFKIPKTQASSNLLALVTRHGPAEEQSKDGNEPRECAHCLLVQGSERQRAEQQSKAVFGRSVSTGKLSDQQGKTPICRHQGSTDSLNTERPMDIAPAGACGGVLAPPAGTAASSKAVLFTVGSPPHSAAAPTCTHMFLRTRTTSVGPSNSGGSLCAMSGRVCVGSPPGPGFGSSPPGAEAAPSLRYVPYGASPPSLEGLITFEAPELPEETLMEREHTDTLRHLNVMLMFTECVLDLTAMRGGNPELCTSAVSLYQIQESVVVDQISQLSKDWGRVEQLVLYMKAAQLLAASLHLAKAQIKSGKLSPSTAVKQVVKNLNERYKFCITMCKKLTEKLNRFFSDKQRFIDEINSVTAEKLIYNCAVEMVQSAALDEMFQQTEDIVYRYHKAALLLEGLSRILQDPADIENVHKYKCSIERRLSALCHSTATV
As to the kind of experiment: Inhibition of ULK2 (unknown origin) expressed in HEK293T cells incubated for 2 hrs by NanoBRET assay. The format is cell-based. In general terms: In BRET a luciferase serves as donor, and the signal depends on an acceptor being close.

Data set [2] can be described thus: Apparent permeability of the compound across apical side to basolateral side in human Caco2 cells. The format is ADME, cell-based. The following applies: Caco-2. (In general: Passage across Caco-2 layers is used to estimate intestinal permeability.)
Data set [3] can be described thus: Efflux ratio of apparent permeability from basolateral side to apical side over apical side to basolateral side in human Caco2 cells. As to conditions: Caco-2. The format is ADME, cell-based.
For data set [4], the target named is T2, Serine/threonine-protein kinase ULK1 (Homo sapiens, UniProt O75385).
T2 sequence (O75385 whole entry): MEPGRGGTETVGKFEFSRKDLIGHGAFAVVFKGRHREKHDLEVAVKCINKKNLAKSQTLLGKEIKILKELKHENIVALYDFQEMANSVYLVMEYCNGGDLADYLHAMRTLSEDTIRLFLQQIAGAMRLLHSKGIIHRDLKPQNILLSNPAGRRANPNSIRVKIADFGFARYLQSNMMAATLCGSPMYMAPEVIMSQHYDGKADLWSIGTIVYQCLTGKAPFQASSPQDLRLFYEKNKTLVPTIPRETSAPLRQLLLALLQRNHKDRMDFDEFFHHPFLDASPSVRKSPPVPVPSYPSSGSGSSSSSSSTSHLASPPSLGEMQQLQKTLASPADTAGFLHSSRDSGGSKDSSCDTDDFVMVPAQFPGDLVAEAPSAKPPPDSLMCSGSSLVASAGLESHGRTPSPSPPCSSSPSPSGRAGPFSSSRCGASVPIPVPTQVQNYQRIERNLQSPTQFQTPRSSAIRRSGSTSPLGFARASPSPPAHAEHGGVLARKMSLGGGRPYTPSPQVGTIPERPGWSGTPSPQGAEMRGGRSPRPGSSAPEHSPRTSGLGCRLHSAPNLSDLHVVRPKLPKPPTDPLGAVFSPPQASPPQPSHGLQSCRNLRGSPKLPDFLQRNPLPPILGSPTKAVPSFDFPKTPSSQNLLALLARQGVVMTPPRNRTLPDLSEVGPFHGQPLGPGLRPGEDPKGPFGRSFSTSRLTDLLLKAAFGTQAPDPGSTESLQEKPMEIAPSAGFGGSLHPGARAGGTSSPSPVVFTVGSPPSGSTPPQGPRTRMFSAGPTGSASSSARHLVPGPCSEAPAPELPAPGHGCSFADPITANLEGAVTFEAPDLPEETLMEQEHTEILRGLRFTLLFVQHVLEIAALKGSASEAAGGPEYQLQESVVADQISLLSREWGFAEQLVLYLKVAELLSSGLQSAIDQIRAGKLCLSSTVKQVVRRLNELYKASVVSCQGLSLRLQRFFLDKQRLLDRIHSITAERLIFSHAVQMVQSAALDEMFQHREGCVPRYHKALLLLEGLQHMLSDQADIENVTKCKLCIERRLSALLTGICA
Put plainly: Inhibition of ULK1 (unknown origin) expressed in HEK293T cells incubated for 2 hrs by NanoBRET assay. It is filed as cell-based.

The test system of data set [5] is MDA-MB-468. Put plainly: Reduction in autophagosome accumulation in human MDA-MB-468 cells at 10 uM by transmission electron microscopic analysis. The format is functional, cell-based.
In a further data set the test system is Mus musculus. As to the kind of experiment: Decrease in ULK1 level in liver lysate of C57BL/6J mouse at 10 mg/kg, po measured after 2 hrs by Western blot analysis. It is filed as functional, organism-based.
The target of data set [6] is T3, Serine/threonine-protein kinase ULK1 (Homo sapiens) (UniProt O75385).
T3 sequence (whole entry): T2 sequence (O75385 whole entry)
Put plainly: Inhibition of Myc-tagged ULK1 (unknown origin) expressed in HEK293T cells cotransfected with wild-type Flag tagged Vps34 assessed as decrease in pVPS34 Ser249 at 10 uM measured after 1 hr by Western blot analysis relative to control. It is filed as cell-based.

Data set [7] relates to MDA-MB-468. As to the kind of experiment: cells. As to conditions: Homo sapiens, MDA-MB-468, 72 h.
Description: Cytotoxicity against human MDA-MB-468 cells measured after 72 hrs by Celltiter-Glo assay
The target in data set [8] is T1, Serine/threonine-protein kinase ULK2. As to the kind of experiment: Inhibition of recombinant human ULK2 (1 to 478 residues) expressed in Sf9 cells using myelin basic protein as substrate by ADP-glo assay.

Broadly, the IC50 is the concentration needed to halve the response being measured. Broadly, the Papp A→B is the apparent permeability from the apical to the basolateral side of a cell layer. By efflux ratio is commonly meant the permeability from basolateral to apical divided by that in the opposite direction, in the common usage. In general, inhibition refers to how much of the control response was suppressed. Consider `COc1ccc(Nc2ncc(C(F)(F)F)c(NC3CC3)n2)cc1OC`, for which the IC50 in data set [1] turned out to be 1160 nM; in data set [4] it was 328 nM; in the data set on MDA-MB-468 [7], 300 nM; in data set [8], 476 nM. For the same molecule, the apical-to-basolateral permeability (Papp A→B) in [2] was more than 10 ×10⁻⁶ cm/s. Besides, the efflux ratio in data set [3] is less than 2. The inhibition entry in the data set on MDA-MB-468 [5] and in the data set on Mus musculus was “Active” each time. Besides, the inhibition in [6] was 90%.
